Common to all, as to experiment: relative viability (nuclei count vs DMSO), 5 days (fraction); higher = more cells survive
Compound in the test “Everolimus + Foretinib”: CO[C@H]1C[C@@H]2CC[C@@H](C)[C@@](O)(O2)C(=O)C(=O)N2CCCC[C@H]2C(=O)O[C@H]([C@H](C)C[C@@H]2CC[C@@H](OCCO)[C@H](OC)C2)CC(=O)[C@H](C)/C=C(\C)[C@@H](O)[C@@H](OC)C(=O)[C@H](C)C[C@H](C)/C=C/C=C/C=C/1C [Everolimus] + COc1cc2c(Oc3ccc(NC(=O)C4(C(=O)Nc5ccc(F)cc5)CC4)cc3F)ccnc2cc1OCCCN1CCOCC1 [Foretinib] (partner 0.25 µM)
The procedure, abridged:
(§1)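 Values are medians from duplicate plates. Each reflects relative viability, defined as the nuclei count of treated wells over that of vehicle wells. Lung cancer cell lines in 1536-well plates were pin-tool dosed one day after seeding with one drug alone or with a fixed anchor-drug dose plus five library-drug doses (not always all listed) in √10 steps, then fixed, stained and imaged at 4× after 5 days.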

Compound in the test “Everolimus + Dasatinib”: CO[C@H]1C[C@@H]2CC[C@@H](C)[C@@](O)(O2)C(=O)C(=O)N2CCCC[C@H]2C(=O)O[C@H]([C@H](C)C[C@@H]2CC[C@@H](OCCO)[C@H](OC)C2)CC(=O)[C@H](C)/C=C(\C)[C@@H](O)[C@@H](OC)C(=O)[C@H](C)C[C@H](C)/C=C/C=C/C=C/1C [Everolimus] + Cc1nc(Nc2ncc(C(=O)Nc3c(C)cccc3Cl)s2)cc(N2CCN(CCO)CC2)n1 [Dasatinib] (partner 0.075 µM)
The procedure, abridged:
as §1

Compound in the test “Everolimus + Luminespib”: CO[C@H]1C[C@@H]2CC[C@@H](C)[C@@](O)(O2)C(=O)C(=O)N2CCCC[C@H]2C(=O)O[C@H]([C@H](C)C[C@@H]2CC[C@@H](OCCO)[C@H](OC)C2)CC(=O)[C@H](C)/C=C(\C)[C@@H](O)[C@@H](OC)C(=O)[C@H](C)C[C@H](C)/C=C/C=C/C=C/1C [Everolimus] + CCNC(=O)c1noc(-c2cc(C(C)C)c(O)cc2O)c1-c1ccc(CN2CCOCC2)cc1 [Luminespib] (partner 0.01 µM)
The procedure, abridged:
as §1

Compound in the test “Everolimus + Decitabine”: CO[C@H]1C[C@@H]2CC[C@@H](C)[C@@](O)(O2)C(=O)C(=O)N2CCCC[C@H]2C(=O)O[C@H]([C@H](C)C[C@@H]2CC[C@@H](OCCO)[C@H](OC)C2)CC(=O)[C@H](C)/C=C(\C)[C@@H](O)[C@@H](OC)C(=O)[C@H](C)C[C@H](C)/C=C/C=C/C=C/1C [Everolimus] + Nc1ncn([C@H]2C[C@H](O)[C@@H](CO)O2)c(=O)n1 [Decitabine] (partner 2 µM)
The procedure, abridged:
as §1

With NCI-H1650, the relative viability in the test with Everolimus + Foretinib (first compound 0.01 µM) was 0.827; with Everolimus + Foretinib (first compound 0.03162 µM), 0.928; with Everolimus + Foretinib (first compound 0.1 µM), 0.973; with Everolimus + Foretinib (first compound 0.3162 µM) it was 0.966; in the test with Everolimus + Foretinib (first compound 1 µM), 1.01; with Everolimus + Dasatinib (first compound 0.01 µM), 0.288. Further, the relative viability with Everolimus + Dasatinib (first compound 0.03162 µM) is 0.225; in the test with Everolimus + Dasatinib (first compound 0.1 µM), 0.263; with Everolimus + Dasatinib (first compound 0.3162 µM) it was 0.315; with Everolimus + Dasatinib (first compound 1 µM), 0.295; with Everolimus + Luminespib (first compound 0.01 µM), 0.167; in the test with Everolimus + Luminespib (first compound 0.03162 µM), 0.207. The relative viability in the test with Everolimus + Luminespib (first compound 0.1 µM) amounted to 0.184; in the test with Everolimus + Luminespib (first compound 0.3162 µM), 0.208; in the test with Everolimus + Luminespib (first compound 1 µM), 0.19; with Everolimus + Decitabine (first compound 0.01 µM), 0.472; with Everolimus + Decitabine (first compound 0.03162 µM), 0.389; with Everolimus + Decitabine (first compound 0.1 µM), 0.556. Besides, the relative viability with Everolimus + Decitabine (first compound 0.3162 µM) amounted to 0.406; in the test with Everolimus + Decitabine (first compound 1 µM), 0.573.
Consider NCI-H1651, for which the relative viability with Everolimus + Foretinib (first compound 0.01 µM) came out at 0.523; with Everolimus + Foretinib (first compound 0.03162 µM), 0.556; in the test with Everolimus + Foretinib (first compound 0.1 µM) it was 0.562; with Everolimus + Foretinib (first compound 0.3162 µM) it was 0.431; in the test with Everolimus + Foretinib (first compound 1 µM), 0.558; with Everolimus + Dasatinib (first compound 0.01 µM), 0.297. Moreover, the relative viability is 0.335 with Everolimus + Dasatinib (first compound 0.03162 µM); 0.259 with Everolimus + Dasatinib (first compound 0.1 µM); 0.24 in the test with Everolimus + Dasatinib (first compound 0.3162 µM); 0.405 with Everolimus + Dasatinib (first compound 1 µM); 0.589 with Everolimus + Luminespib (first compound 0.01 µM); 0.531 with Everolimus + Luminespib (first compound 0.03162 µM). The relative viability with Everolimus + Luminespib (first compound 0.1 µM) was found to be 0.612; with Everolimus + Luminespib (first compound 0.3162 µM), 0.575; in the test with Everolimus + Luminespib (first compound 1 µM), 0.567; with Everolimus + Decitabine (first compound 0.01 µM), 0.532; with Everolimus + Decitabine (first compound 0.03162 µM), 0.383; with Everolimus + Decitabine (first compound 0.1 µM), 0.464. In addition, the relative viability in the test with Everolimus + Decitabine (first compound 0.3162 µM) was determined as 0.489; with Everolimus + Decitabine (first compound 1 µM), 0.484.
For the cell line NCI-H1666, the relative viability is 0.885 in the test with Everolimus + Foretinib (first compound 0.01 µM); 0.925 with Everolimus + Foretinib (first compound 0.03162 µM); 0.972 in the test with Everolimus + Foretinib (first compound 0.1 µM); 0.926 with Everolimus + Foretinib (first compound 0.3162 µM); 0.875 with Everolimus + Foretinib (first compound 1 µM); 0.826 in the test with Everolimus + Dasatinib (first compound 0.01 µM). In addition, the relative viability with Everolimus + Dasatinib (first compound 0.03162 µM) came out at 0.722; with Everolimus + Dasatinib (first compound 0.1 µM), 0.795; in the test with Everolimus + Dasatinib (first compound 0.3162 µM), 0.78; in the test with Everolimus + Dasatinib (first compound 1 µM), 0.813; in the test with Everolimus + Luminespib (first compound 0.01 µM), 0.898; with Everolimus + Luminespib (first compound 0.03162 µM), 0.964. The relative viability in the test with Everolimus + Luminespib (first compound 0.1 µM) was found to be 0.909; with Everolimus + Luminespib (first compound 0.3162 µM) it was 0.98; with Everolimus + Luminespib (first compound 1 µM) it was 0.929; with Everolimus + Decitabine (first compound 0.01 µM), 0.676; with Everolimus + Decitabine (first compound 0.03162 µM), 0.553; in the test with Everolimus + Decitabine (first compound 0.1 µM), 0.639. Further, the relative viability in the test with Everolimus + Decitabine (first compound 0.3162 µM) turned out to be 0.75; with Everolimus + Decitabine (first compound 1 µM), 0.672.
As to NCI-H1734, the relative viability came to 0.495 with Everolimus + Foretinib (first compound 0.01 µM); 0.529 with Everolimus + Foretinib (first compound 0.03162 µM); 0.479 with Everolimus + Foretinib (first compound 0.1 µM); 0.467 with Everolimus + Foretinib (first compound 0.3162 µM); 0.541 with Everolimus + Foretinib (first compound 1 µM); 0.276 with Everolimus + Dasatinib (first compound 0.01 µM). Further, the relative viability in the test with Everolimus + Dasatinib (first compound 0.03162 µM) came out at 0.301; with Everolimus + Dasatinib (first compound 0.1 µM) it was 0.265; with Everolimus + Dasatinib (first compound 0.3162 µM), 0.266; in the test with Everolimus + Dasatinib (first compound 1 µM) it was 0.316; with Everolimus + Luminespib (first compound 0.01 µM) it was 0.176; with Everolimus + Luminespib (first compound 0.03162 µM) it was 0.211. In addition, the relative viability with Everolimus + Luminespib (first compound 0.1 µM) was determined as 0.185; with Everolimus + Luminespib (first compound 0.3162 µM), 0.184; with Everolimus + Luminespib (first compound 1 µM), 0.208; with Everolimus + Decitabine (first compound 0.01 µM), 0.422; with Everolimus + Decitabine (first compound 0.03162 µM), 0.397; with Everolimus + Decitabine (first compound 0.1 µM), 0.351. In addition, the relative viability with Everolimus + Decitabine (first compound 0.3162 µM) was 0.371; in the test with Everolimus + Decitabine (first compound 1 µM), 0.367.
For NCI-H1755, the relative viability with Everolimus + Foretinib (first compound 0.01 µM) was 0.791; in the test with Everolimus + Foretinib (first compound 0.03162 µM), 0.751; with Everolimus + Foretinib (first compound 0.1 µM), 0.653; in the test with Everolimus + Foretinib (first compound 0.3162 µM) it was 0.822; with Everolimus + Foretinib (first compound 1 µM), 0.632; with Everolimus + Dasatinib (first compound 0.01 µM), 0.421. In addition, the relative viability with Everolimus + Dasatinib (first compound 0.03162 µM) is 0.232; with Everolimus + Dasatinib (first compound 0.1 µM), 0.37; with Everolimus + Dasatinib (first compound 0.3162 µM), 0.419; with Everolimus + Dasatinib (first compound 1 µM), 0.318; in the test with Everolimus + Luminespib (first compound 0.01 µM) it was 0.372; with Everolimus + Luminespib (first compound 0.03162 µM), 0.312. Besides, the relative viability in the test with Everolimus + Luminespib (first compound 0.1 µM) was determined as 0.347; in the test with Everolimus + Luminespib (first compound 0.3162 µM), 0.347; with Everolimus + Luminespib (first compound 1 µM), 0.244; in the test with Everolimus + Decitabine (first compound 0.01 µM), 0.582; with Everolimus + Decitabine (first compound 0.03162 µM), 0.56; in the test with Everolimus + Decitabine (first compound 0.1 µM), 0.489. Moreover, the relative viability with Everolimus + Decitabine (first compound 0.3162 µM) turned out to be 0.52; with Everolimus + Decitabine (first compound 1 µM), 0.534.
Regarding NCI-H1793, the relative viability with Everolimus + Foretinib (first compound 0.01 µM) was 0.293; with Everolimus + Foretinib (first compound 0.03162 µM) it was 0.314; in the test with Everolimus + Foretinib (first compound 0.1 µM) it was 0.259; with Everolimus + Foretinib (first compound 0.3162 µM) it was 0.293; with Everolimus + Foretinib (first compound 1 µM) it was 0.291; in the test with Everolimus + Dasatinib (first compound 0.01 µM) it was 0.23. Also, the relative viability was found to be 0.256 with Everolimus + Dasatinib (first compound 0.03162 µM); 0.209 with Everolimus + Dasatinib (first compound 0.1 µM); 0.214 with Everolimus + Dasatinib (first compound 0.3162 µM); 0.162 with Everolimus + Dasatinib (first compound 1 µM); 0.151 in the test with Everolimus + Luminespib (first compound 0.01 µM); 0.149 in the test with Everolimus + Luminespib (first compound 0.03162 µM). The relative viability in the test with Everolimus + Luminespib (first compound 0.1 µM) is 0.139; in the test with Everolimus + Luminespib (first compound 0.3162 µM) it was 0.152; in the test with Everolimus + Luminespib (first compound 1 µM), 0.113; in the test with Everolimus + Decitabine (first compound 0.01 µM), 0.283; with Everolimus + Decitabine (first compound 0.03162 µM), 0.262; in the test with Everolimus + Decitabine (first compound 0.1 µM), 0.339. Moreover, the relative viability with Everolimus + Decitabine (first compound 0.3162 µM) stood at 0.344; with Everolimus + Decitabine (first compound 1 µM), 0.263.
For the cell line NCI-H1915, the relative viability turned out to be 1.04 with Everolimus + Foretinib (first compound 0.01 µM); 0.975 in the test with Everolimus + Foretinib (first compound 0.03162 µM); 0.838 with Everolimus + Foretinib (first compound 0.1 µM); 0.972 with Everolimus + Foretinib (first compound 0.3162 µM); 0.79 with Everolimus + Foretinib (first compound 1 µM); 0.285 with Everolimus + Dasatinib (first compound 0.01 µM). The relative viability amounted to 0.231 in the test with Everolimus + Dasatinib (first compound 0.03162 µM); 0.208 with Everolimus + Dasatinib (first compound 0.1 µM); 0.247 with Everolimus + Dasatinib (first compound 0.3162 µM); 0.206 with Everolimus + Dasatinib (first compound 1 µM); 0.722 with Everolimus + Luminespib (first compound 0.01 µM); 0.714 with Everolimus + Luminespib (first compound 0.03162 µM). The relative viability was 0.478 with Everolimus + Luminespib (first compound 0.1 µM); 0.532 with Everolimus + Luminespib (first compound 0.3162 µM); 0.579 in the test with Everolimus + Luminespib (first compound 1 µM); 0.25 with Everolimus + Decitabine (first compound 0.01 µM); 0.234 with Everolimus + Decitabine (first compound 0.03162 µM); 0.238 in the test with Everolimus + Decitabine (first compound 0.1 µM). In addition, the relative viability with Everolimus + Decitabine (first compound 0.3162 µM) was found to be 0.273; in the test with Everolimus + Decitabine (first compound 1 µM), 0.263.

The values above are taken from the supplement of paper PMC10307832.
